Consider 24 compounds from patent publication US20250170141A1, “MRGPRX2 MODULATORS AND RELATED METHODS OF TREATMENT” (Escient Pharmaceuticals, Inc., priority 2023, published 2025).

pIC50: −log10 of the molar value.

This assay has as its target T1, human MRGPRX2 (Homo sapiens, UniProt Q96LB1).
T1 construct: expressed in transfected cells; host or cells: CHO cells, stably transfected (G418 and Hygromycin B selection)
T1 sequence (Q96LB1 1-330): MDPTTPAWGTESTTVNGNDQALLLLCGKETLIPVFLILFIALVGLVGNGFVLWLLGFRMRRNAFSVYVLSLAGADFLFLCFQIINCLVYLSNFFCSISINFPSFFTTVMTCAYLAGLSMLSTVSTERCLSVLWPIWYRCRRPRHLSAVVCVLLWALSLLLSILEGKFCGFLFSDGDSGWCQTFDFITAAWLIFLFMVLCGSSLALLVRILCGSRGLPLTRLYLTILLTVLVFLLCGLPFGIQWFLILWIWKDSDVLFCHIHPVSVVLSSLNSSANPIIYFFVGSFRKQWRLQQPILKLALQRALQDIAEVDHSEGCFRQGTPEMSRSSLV
Description: MRGPRX2 activity: IP-One Gq HTRF assay in CHO cells, antagonism versus 0.3 uM Cortistatin-14. Format: cell-based. Conditions: versus 0.3 uM Cortistatin-14 agonist, CHO cells expressing human MRGPRX2, read-out: MRGPRX2 Antagonist Activity. In short, it runs like this:
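Antagonist IC50 was derived from the HTRF IP-1 signal after co-addition of compounds (10 points, top 30 uM, 3-fold steps) and 0.3 μM Cortistatin-14 agonist to human MRGPRX2-expressing CHO cells. Assay buffer contained 50 mM LiCl, pH 8; plates sat 1 h at 37 °C, then 1 h at room temperature.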
(TR-FRET usually uses a lanthanide donor and a delayed reading to cut background.)

`O=S1(=O)N=C(NCc2ccc(F)cc2F)Nc2c1cc(F)c(F)c2Cc1ccccc1Cl` [Compound 4-8, 5-(2-chlorobenzyl)-3-((2,4-difluorobenzyl)amino)-6,7-difluoro-4H-benzo[e][1,2,4]thiadiazine 1,1-dioxide]: the pIC50 was 6.30 to 7.00. Consider `CC(c1ccccc1F)c1c(F)ccc2c1NC(NCc1cccc(F)c1)=NS2(=O)=O` (stereo not drawn) [Compound 9-4, 6-fluoro-3-((3-fluorobenzyl)amino)-5-(1-(2-fluorophenyl)ethyl)-4H-benzo[e][1,2,4]thiadiazine 1,1-dioxide], for which the pIC50 is over 7.00.

`CC(c1ccccc1F)c1c(F)ccc2c1NC(NCc1cccnc1)=NS2(=O)=O` (stereo not drawn) [Compound 7-3, 6-fluoro-5-(1-(2-fluorophenyl)ethyl)-3-((pyridin-3-ylmethyl)amino)-4H-benzo[e][1,2,4]thiadiazine 1,1-dioxide]: the pIC50 was 6.30 to 7.00. The result for `O=S1(=O)N=C(NCc2ncccc2C(F)(F)F)Nc2c(Cc3ccccc3Cl)cccc21` [Compound 12-29, 5-(2-chlorobenzyl)-3-(((3-(trifluoromethyl)pyridin-2-yl)methyl)amino)-4H-benzo[e][1,2,4]thiadiazine 1,1-dioxide] reads over 7.00; that for `CC(c1c(F)ccc2c1NC(NCc1cccc(F)c1)=NS2(=O)=O)C1CCOCC1` (stereo not drawn) [Compound 22-3, 6-fluoro-3-((3-fluorobenzyl)amino)-5-(1-(tetrahydro-2H-pyran-4-yl)ethyl)-4H-benzo[e][1,2,4]thiadiazine 1,1-dioxide], over 7.00.

Take `Cc1nn(C)cc1C(C)c1c(F)ccc2c1NC(NCc1cccc(F)c1)=NS2(=O)=O` (stereo not drawn) [Compound 22-19, 5-(1-(1,3-dimethyl-1H-pyrazol-4-yl)ethyl)-6-fluoro-3-((3-fluorobenzyl)amino)-4H-benzo[e][1,2,4]thiadiazine 1,1-dioxide]: the pIC50 was over 7.00.

As for `O=S1(=O)N=C(NCc2cnccc2Cl)Nc2c(Cc3ccccc3Cl)cccc21` [Compound 12-32, 5-(2-chlorobenzyl)-3-(((4-chloropyridin-3-yl)methyl)amino)-4H-benzo[e][1,2,4]thiadiazine 1,1-dioxide], the pIC50 is over 7.00. For `CC(C)(F)CNC1=NS(=O)(=O)c2cccc(Oc3ccccc3Cl)c2N1` [Compound 1-244, 5-(2-chlorophenoxy)-3-((2-fluoro-2-methylpropyl)amino)-4H-benzo[e][1,2,4]thiadiazine 1,1-dioxide], the pIC50 is 5.60 to 6.00. `CC(c1ccccc1F)c1c(F)ccc2c1NC(NCc1ccc(F)c(Cl)c1)=NS2(=O)=O` (stereo not drawn) [Compound 7-7, 3-((3-chloro-4-fluorobenzyl)amino)-6-fluoro-5-(1-(2-fluorophenyl)ethyl)-4H-benzo[e][1,2,4]thiadiazine 1,1-dioxide]: the pIC50 is over 7.00.

Consider `CC(c1ccccc1F)c1c(F)ccc2c1NC(NCc1cc(F)ccc1F)=NS2(=O)=O` (stereo not drawn) [Compound 9-3, 3-((2,5-difluorobenzyl)amino)-6-fluoro-5-(1-(2-fluorophenyl)ethyl)-4H-benzo[e][1,2,4]thiadiazine 1,1-dioxide], for which the pIC50 is over 7.00.

Take `COc1cccc(CNC2=NS(=O)(=O)c3ccc(F)c(Oc4ccccc4Cl)c3N2)c1` [Compound 1-3, 5-(2-chlorophenoxy)-6-fluoro-3-((3-methoxybenzyl)amino)-4H-benzo[e][1,2,4]thiadiazine 1,1-dioxide]: the pIC50 was 6.30 to 7.00. On to `CC(c1cccc(F)c1Cl)c1c(F)ccc2c1NC(NCc1ncccc1F)=NS2(=O)=O` (stereo not drawn) [Compound 7-1, 5-(1-(2-chloro-3-fluorophenyl)ethyl)-6-fluoro-3-(((3-fluoropyridin-2-yl)methyl)amino)-4H-benzo[e][1,2,4]thiadiazine 1,1-dioxide], for which the pIC50 was over 7.00.

`Cc1ccc(CNC2=NS(=O)(=O)c3cccc(Cc4ccccc4Cl)c3N2)c(C)c1` [Compound 12-8, 5-(2-chlorobenzyl)-3-((2,4-dimethylbenzyl)amino)-4H-benzo[e][1,2,4]thiadiazine 1,1-dioxide]: the pIC50 is over 7.00. For the compound `O=S1(=O)N=C(NCc2ncccc2F)Nc2c1ccc(F)c2CCc1ccccc1Cl` [Compound 11-1, 5-(2-chlorophenethyl)-6-fluoro-3-(((3-fluoropyridin-2-yl)methyl)amino)-4H-benzo[e][1,2,4]thiadiazine 1,1-dioxide], the pIC50 is 6.30 to 7.00. Regarding `Cc1c(F)cccc1CNC1=NS(=O)(=O)c2ccc(F)c(C(C)c3ccccc3F)c2N1` (stereo not drawn) [Compound 9-6, 6-fluoro-3-((3-fluoro-2-methylbenzyl)amino)-5-(1-(2-fluorophenyl)ethyl)-4H-benzo[e][1,2,4]thiadiazine 1,1-dioxide], the pIC50 was over 7.00.

For `O=S1(=O)N=C(NCc2ncccc2F)Nc2c1ccc(F)c2Oc1c(F)cccc1F` [Compound 1-33, 5-(2,6-difluorophenoxy)-6-fluoro-3-(((3-fluoropyridin-2-yl)methyl)amino)-4H-benzo[e][1,2,4]thiadiazine 1,1-dioxide], the pIC50 was 6.00 to 6.30.

In the case of `O=S1(=O)N=C(NCc2ncccc2F)Nc2c1ccc(F)c2Oc1cccc(F)c1` [Compound 2-8, 6-fluoro-5-(3-fluorophenoxy)-3-(((3-fluoropyridin-2-yl)methyl)amino)-4H-benzo[e][1,2,4]thiadiazine 1,1-dioxide], the pIC50 was 6.30 to 7.00.

For the compound `[2H]c1ccc2c(c1[C@H](C)c1ccccc1F)NC(NCc1ncccc1F)=NS2(=O)=O` [Compound 23-1, (S)-5-(1-(2-fluorophenyl)ethyl)-3-(((3-fluoropyridin-2-yl)methyl)amino)-4H-benzo[e][1,2,4]thiadiazine 1,1-dioxide-6-d], the pIC50 is over 7.00. As to `O=S1(=O)N=C(NCc2ncccc2F)Nc2c1ccc(F)c2Oc1ccccc1-c1ccccc1` [Compound 1-35, 5-([1,1′-biphenyl]-2-yloxy)-6-fluoro-3-(((3-fluoropyridin-2-yl)methyl)amino)-4H-benzo[e][1,2,4]thiadiazine 1,1-dioxide], the pIC50 is 5.60 to 6.00. `O=C(c1ccccc1Cl)c1cccc2c1NC(NCc1ncccc1C(F)(F)F)=NS2(=O)=O` [Compound 16-4, (2-chlorophenyl)(1,1-dioxido-3-(((3-(trifluoromethyl)pyridin-2-yl)methyl)amino)-4H-benzo[e][1,2,4]thiadiazin-5-yl)methanone]: the pIC50 is over 7.00. Turning to `O=S1(=O)N=C(NCc2cccc(Cl)c2F)Nc2c1ccc(F)c2Oc1ccccc1Cl` [Compound 1-25, 3-((3-chloro-2-fluorobenzyl)amino)-5-(2-chlorophenoxy)-6-fluoro-4H-benzo[e][1,2,4]thiadiazine 1,1-dioxide], the pIC50 was over 7.00. For the compound `O=S1(=O)N=C(NCc2ccc(F)cc2Cl)Nc2c(Cc3ccccc3Cl)cccc21` [Compound 12-4, 3-((2-chloro-4-fluorobenzyl)amino)-5-(2-chlorobenzyl)-4H-benzo[e][1,2,4]thiadiazine 1,1-dioxide], the pIC50 was over 7.00. As for `O=S1(=O)N=C(NCc2ncc(F)cc2F)Nc2c(Cc3ccccc3Cl)cccc21` [Compound 12-10, 5-(2-chlorobenzyl)-3-(((3,5-difluoropyridin-2-yl)methyl)amino)-4H-benzo[e][1,2,4]thiadiazine 1,1-dioxide], the pIC50 was over 7.00. The result for `COc1cccnc1CNC1=NS(=O)(=O)c2cccc(Cc3ccccc3Cl)c2N1` [Compound 12-25, 5-(2-chlorobenzyl)-3-(((3-methoxypyridin-2-yl)methyl)amino)-4H-benzo[e][1,2,4]thiadiazine 1,1-dioxide] reads over 7.00.
